Measurements from US12678488B2, “Batch management method for improving farrowing rate or number of piglets born alive in swine” (priority 2024, dated 2026).

Test system: batch farrowing sows
Test: Previous experiment of feeding batch farrowing sows with different doses at different times
Format: in vivo, pigs
Details: application dosage and oral administration time of clinical medicine and bovine superovulation
Protocol: In the disclosure, the administration dosage of 1-[bis(4-cyanophenyl)alkyl]-1,2,4-triazole is generally 10-50 μg/kg·BW administered in a single dose, preferably 12-30 μg/kg·BW administered in a single dose, further preferably 12-25 μg/kg·BW administered in a single dose, e.g., 13, 14, 15, 16, 17, 18, 19, 20, 21, 22, or 23 μg/kg·BW. Alternatively, it can be administered in two doses. As long as the total administration dosage of the two doses is within a range of 10-50 μg/kg·BW, the dosage of each administration is not particularly limited, for example, each administration dosage is generally within a range of 1-40 μg/kg·BW. In the case of two doses, the time interval between the two instances of administration is 8-30 hours, preferably 9-28 hours, more preferably 10-26 hours, further preferably 12-25 hours, 14-24 hours, etc. If the administration dosage is too high, it tends to affect the estrus and ovulation in animals and even cause ovarian cysts. The administration dosage of the disclosure is important.

## N#Cc1ccc(C(c2ccc(C#N)cc2)n2cncn2)cc1 [1-[bis(4-cyanophenyl)methyl]-1,2,4-triazole]
  problems caused in sows: recessive estrus, ovarian cyst, anovulation, and pregnancy failure
